# Legend:
# [1] = human, serum
# [2] = human
# [3] = human; remark: listed apart in the source
# [4] = human; remark: listed apart in the source
# [5] = human, serum, 4383 h
# [6] = human; remark: listed apart in the source
# [7] = Times to onset, minimal and maximal, observed in the indexed observations. [column 'DELAI' in source]; settings: human
# [8] = human; remark: listed apart in the source
# [9] = Presence of at least one case with successful reintroduction. [column 'REINT' in source]; settings: human
# [10] = Highest frequency of moderate liver toxicity observed during clinical trials, expressed as a percentage. [column '% BIOL' in source]; settings: human
# [11] = Highest frequency of acute liver toxicity observed during clinical trials, expressed as a percentage. [column '% AIGUE' in source]; settings: human
# [12] = Proposed mechanism(s) of liver damage. [column 'MEC' in source]; settings: human
# [13] = human; remark: listed apart in the source
# [14] = human; remark: listed apart in the source
# [15] = human; remark: listed apart in the source
# [16] = human; remark: listed apart in the source
# [17] = human; remark: listed apart in the source
# [18] = human, serum; remark: listed apart in the source
# 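Throughout, for Hepatotoxicity (association with vascular disease): count of indexed literature references reporting vascular liver injury in humans, e.g. peliosis hepatitis, hepatic veno-occlusive disease or Budd-Chiari syndrome.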
# 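Throughout, for Hepatotoxicity (benign tumour): value is a count of indexed literature references citing a benign tumour confirmed by histopathology.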
# 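Throughout, for Hepatotoxicity (choleostasis): human cholestatic liver injury, shown by histopathology or by peak ALT or AST elevation over alkaline phosphatase ratio below 2, value counts indexed literature reports.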
# 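Throughout, for Hepatotoxicity (chronic liver disease): chronic liver injury confirmed by histopathology or persistently raised serum aminotransferase activity beyond 6 months, value given as the count of indexed literature references.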
# 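Throughout, for Hepatotoxicity (cirrhosis): value is a count of indexed literature references reporting cirrhosis confirmed by histopathology.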
# 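Throughout, for Hepatotoxicity (cytolytic): human cytolytic liver injury, shown by histopathology or by a ratio above 5 of peak ALT or AST elevation to alkaline phosphatase elevation, value counts indexed references.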
# 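Throughout, for Hepatotoxicity (granulomatous hepatitis): value is a count of indexed literature references reporting granulomatous liver disease confirmed by histopathology.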
# 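Throughout, for Hepatotoxicity (malignant tumour): malignant tumour confirmed by histopathology, value gives the count of indexed literature references reporting it.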
# 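Throughout, for Hepatotoxicity (severe hepatitis): human clinical data: severe hepatitis, meaning potentially life-threatening liver failure or clinically observed cases, the value counts how many indexed literature references report it.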
# 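Throughout, for Hepatotoxicity (steatosis): steatosis confirmed by histopathology, value is the count of indexed references.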
compound,measurement,setting,value
C[C@H](CCC(=O)O)[C@H]1CC[C@H]2[C@@H]3[C@H](O)C[C@@H]4C[C@H](O)CC[C@]4(C)[C@H]3CC[C@]12C [CHENODIOL],Hepatotoxicity (moderate),[1],22
same,Hepatotoxicity (severe hepatitis),[2],0
same,Hepatotoxicity (cirrhosis),[3],0
same,Hepatotoxicity (association with vascular disease),[4],0
same,Hepatotoxicity (chronic liver disease),[5],1
same,Hepatotoxicity (malignant tumour),[6],0
same,Hepatotoxicity (time to onset),[7],3 weeks - 3 months
same,Hepatotoxicity (benign tumour),[8],0
same,Hepatotoxicity (successful reintroduction),[9],yes
same,Hepatotoxicity (moderate),[10],37%
same,Hepatotoxicity (acute),[11],3%
same,Hepatotoxicity (mechanism),[12],Dose-dependant
same,Hepatotoxicity (animal toxicity known),[13],yes
same,Hepatotoxicity (cytolytic),[14],3
same,Hepatotoxicity (steatosis),[15],0
same,Hepatotoxicity (granulomatous hepatitis),[16],0
same,Hepatotoxicity (choleostasis),[17],2
same,Hepatotoxicity (acute),[18],5
N=C(N)c1ccc(OCCCCCOc2ccc(C(=N)N)cc2)cc1 [PENTAMIDINE],Hepatotoxicity (moderate),[1],17
same,Hepatotoxicity (severe hepatitis),[2],2
same,Hepatotoxicity (cirrhosis),[3],0
same,Hepatotoxicity (association with vascular disease),[4],0
same,Hepatotoxicity (chronic liver disease),[5],0
same,Hepatotoxicity (malignant tumour),[6],0
same,Hepatotoxicity (time to onset),[7],1 week - 3 months
same,Hepatotoxicity (benign tumour),[8],0
same,Hepatotoxicity (successful reintroduction),[9],yes
same,Hepatotoxicity (moderate),[10],43.5%
same,Hepatotoxicity (acute),[11],0%
same,Hepatotoxicity (animal toxicity known),[13],yes
same,Hepatotoxicity (cytolytic),[14],4
same,Hepatotoxicity (steatosis),[15],1
same,Hepatotoxicity (granulomatous hepatitis),[16],0
same,Hepatotoxicity (choleostasis),[17],0
same,Hepatotoxicity (acute),[18],4
O=c1ccc2ccccc2o1 [COUMARIN],Hepatotoxicity (moderate),[1],8
same,Hepatotoxicity (severe hepatitis),[2],3
same,Hepatotoxicity (cirrhosis),[3],0
same,Hepatotoxicity (association with vascular disease),[4],0
same,Hepatotoxicity (chronic liver disease),[5],0
same,Hepatotoxicity (malignant tumour),[6],0
same,Hepatotoxicity (time to onset),[7],5 days - 6 months
same,Hepatotoxicity (benign tumour),[8],0
same,Hepatotoxicity (successful reintroduction),[9],yes
same,Hepatotoxicity (moderate),[10],8.7%
same,Hepatotoxicity (acute),[11],4.3%
same,Hepatotoxicity (mechanism),[12],Dose-dependant
same,Hepatotoxicity (animal toxicity known),[13],yes
same,Hepatotoxicity (cytolytic),[14],11
same,Hepatotoxicity (steatosis),[15],0
same,Hepatotoxicity (granulomatous hepatitis),[16],0
same,Hepatotoxicity (choleostasis),[17],1
same,Hepatotoxicity (acute),[18],16
Cc1nnc2n1-c1ccc(Cl)cc1C(c1ccccc1)=NC2 [ALPRAZOLAM],Hepatotoxicity (moderate),[1],3
same,Hepatotoxicity (severe hepatitis),[2],1
same,Hepatotoxicity (cirrhosis),[3],0
same,Hepatotoxicity (association with vascular disease),[4],1
same,Hepatotoxicity (chronic liver disease),[5],0
same,Hepatotoxicity (malignant tumour),[6],0
same,Hepatotoxicity (time to onset),[7],3 days - 3 weeks
same,Hepatotoxicity (benign tumour),[8],0
same,Hepatotoxicity (successful reintroduction),[9],yes
same,Hepatotoxicity (moderate),[10],8%
same,Hepatotoxicity (acute),[11],0.4%
same,Hepatotoxicity (mechanism),[12],Dose-dependant
same,Hepatotoxicity (animal toxicity known),[13],A
same,Hepatotoxicity (cytolytic),[14],2
same,Hepatotoxicity (steatosis),[15],0
same,Hepatotoxicity (granulomatous hepatitis),[16],0
same,Hepatotoxicity (choleostasis),[17],1
same,Hepatotoxicity (acute),[18],4
C[C@H]1O[C@H](O[C@H]2[C@H](O)[C@@H](O)[C@@H](O[C@H]3[C@H](O)[C@@H](O)C(O)O[C@@H]3CO)O[C@@H]2CO)[C@H](O)[C@@H](O)[C@@H]1N[C@H]1C=C(CO)[C@@H](O)[C@H](O)[C@H]1O (stereo not given in full) [ACARBOSE],Hepatotoxicity (moderate),[1],6
same,Hepatotoxicity (severe hepatitis),[2],0
same,Hepatotoxicity (cirrhosis),[3],0
same,Hepatotoxicity (association with vascular disease),[4],0
same,Hepatotoxicity (chronic liver disease),[5],0
same,Hepatotoxicity (malignant tumour),[6],0
same,Hepatotoxicity (time to onset),[7],1 week - 1.5 years
same,Hepatotoxicity (benign tumour),[8],0
same,Hepatotoxicity (successful reintroduction),[9],yes
same,Hepatotoxicity (moderate),[10],9.9%
same,Hepatotoxicity (acute),[11],0%
same,Hepatotoxicity (animal toxicity known),[13],yes
same,Hepatotoxicity (cytolytic),[14],6
same,Hepatotoxicity (steatosis),[15],0
same,Hepatotoxicity (granulomatous hepatitis),[16],0
same,Hepatotoxicity (choleostasis),[17],0
same,Hepatotoxicity (acute),[18],7
Cc1ncc([N+](=O)[O-])n1CCO [METRONIDAZOLE],Hepatotoxicity (moderate),[1],4
same,Hepatotoxicity (severe hepatitis),[2]; Liver,1
same,Hepatotoxicity (cirrhosis),[3],0
same,Hepatotoxicity (association with vascular disease),[4],0
same,Hepatotoxicity (chronic liver disease),[5],0
same,Hepatotoxicity (malignant tumour),[6],0
same,Hepatotoxicity (time to onset),[7],1 day - 2.3 months
same,Hepatotoxicity (benign tumour),[8],0
same,Hepatotoxicity (successful reintroduction),[9],yes
same,Hepatotoxicity (moderate),[10]; Liver,25%
same,Hepatotoxicity (acute),[11]; Liver,0%
same,Hepatotoxicity (mechanism),[12],Dose-dependant
same,Hepatotoxicity (animal toxicity known),[13],yes
same,Hepatotoxicity (cytolytic),[14],8
same,Hepatotoxicity (steatosis),[15],0
same,Hepatotoxicity (granulomatous hepatitis),[16],0
same,Hepatotoxicity (choleostasis),[17],2
same,Hepatotoxicity (acute),[18],10
O=C1c2cccc(O)c2C(=O)c2c(O)cccc21 [DANTHRON],Hepatotoxicity (moderate),[1],1
same,Hepatotoxicity (severe hepatitis),[2],0
same,Hepatotoxicity (cirrhosis),[3],0
same,Hepatotoxicity (association with vascular disease),[4],0
same,Hepatotoxicity (chronic liver disease),[5],1
same,Hepatotoxicity (malignant tumour),[6],0
same,Hepatotoxicity (time to onset),[7],2 days - 1 year
same,Hepatotoxicity (benign tumour),[8],0
same,Hepatotoxicity (successful reintroduction),[9],yes
same,Hepatotoxicity (moderate),[10],0%
same,Hepatotoxicity (acute),[11],0%
same,Hepatotoxicity (animal toxicity known),[13],yes
same,Hepatotoxicity (cytolytic),[14],0
same,Hepatotoxicity (steatosis),[15],0
same,Hepatotoxicity (granulomatous hepatitis),[16],0
same,Hepatotoxicity (choleostasis),[17],0
same,Hepatotoxicity (acute),[18],0
C[C@@H]1[C@H](O)[C@@H](C)/C=C/C=C/C=C/C=C/C=C/C=C/C=C/[C@H](O[C@@H]2O[C@H](C)[C@@H](O)[C@H](N)[C@@H]2O)C[C@@H]2O[C@](O)(C[C@@H](O)C[C@@H](O)[C@H](O)CC[C@@H](O)C[C@@H](O)CC(=O)O[C@H]1C)C[C@H](O)[C@H]2C(=O)O [AMPHOTERICIN B],Hepatotoxicity (moderate),[1],28
same,Hepatotoxicity (severe hepatitis),[2],4
same,Hepatotoxicity (cirrhosis),[3],0
same,Hepatotoxicity (association with vascular disease),[4],0
same,Hepatotoxicity (chronic liver disease),[5],0
same,Hepatotoxicity (malignant tumour),[6],0
same,Hepatotoxicity (time to onset),[7],2 days - 4 months
same,Hepatotoxicity (benign tumour),[8],0
same,Hepatotoxicity (successful reintroduction),[9],yes
same,Hepatotoxicity (moderate),[10],91.7%
same,Hepatotoxicity (acute),[11],50%
same,Hepatotoxicity (mechanism),[12],Dose-dependant
same,Hepatotoxicity (animal toxicity known),[13],yes
same,Hepatotoxicity (cytolytic),[14],6
same,Hepatotoxicity (steatosis),[15],2
same,Hepatotoxicity (granulomatous hepatitis),[16],0
same,Hepatotoxicity (choleostasis),[17],7
same,Hepatotoxicity (acute),[18],15
COc1ccc2c(c1)c(CC(=O)O)c(C)n2C(=O)c1ccc(Cl)cc1 [INDOMETHACIN],Hepatotoxicity (moderate),[1],7
same,Hepatotoxicity (severe hepatitis),[2],5
same,Hepatotoxicity (cirrhosis),[3],0
same,Hepatotoxicity (association with vascular disease),[4],0
same,Hepatotoxicity (chronic liver disease),[5],0
same,Hepatotoxicity (malignant tumour),[6],0
same,Hepatotoxicity (time to onset),[7],3 days - 10 years
same,Hepatotoxicity (benign tumour),[8],0
same,Hepatotoxicity (successful reintroduction),[9],yes
same,Hepatotoxicity (moderate),[10],25%
same,Hepatotoxicity (acute),[11],1%
same,Hepatotoxicity (mechanism),[12],"Allergic, Reactive metabolite"
same,Hepatotoxicity (animal toxicity known),[13],yes
same,Hepatotoxicity (cytolytic),[14],8
same,Hepatotoxicity (steatosis),[15],0
same,Hepatotoxicity (granulomatous hepatitis),[16],0
same,Hepatotoxicity (choleostasis),[17],10
same,Hepatotoxicity (acute),[18],17
N[C@@H]1C[C@H]1c1ccccc1.N[C@H]1C[C@@H]1c1ccccc1 [TRANYLCYPROMINE],Hepatotoxicity (moderate),[1],0
same,Hepatotoxicity (severe hepatitis),[2]; Liver,0
same,Hepatotoxicity (cirrhosis),[3],0
same,Hepatotoxicity (association with vascular disease),[4],0
same,Hepatotoxicity (chronic liver disease),[5],0
same,Hepatotoxicity (malignant tumour),[6],0
same,Hepatotoxicity (benign tumour),[8],0
same,Hepatotoxicity (successful reintroduction),[9],yes
same,Hepatotoxicity (moderate),[10]; Liver,0%
same,Hepatotoxicity (acute),[11]; Liver,0%
same,Hepatotoxicity (animal toxicity known),[13],yes
same,Hepatotoxicity (cytolytic),[14]; Liver,2
same,Hepatotoxicity (steatosis),[15],0
same,Hepatotoxicity (granulomatous hepatitis),[16]; Liver,0
same,Hepatotoxicity (choleostasis),[17]; Liver,2
same,Hepatotoxicity (acute),[18],2
COC1=CC(=O)C[C@@H](C)[C@]12Oc1c(Cl)c(OC)cc(OC)c1C2=O [GRISEOFULVIN],Hepatotoxicity (moderate),[1],9
same,Hepatotoxicity (severe hepatitis),[2],0
same,Hepatotoxicity (cirrhosis),[3],0
same,Hepatotoxicity (association with vascular disease),[4],0
same,Hepatotoxicity (chronic liver disease),[5],0
same,Hepatotoxicity (malignant tumour),[6],0
same,Hepatotoxicity (time to onset),[7],3 days - 4.5 months
same,Hepatotoxicity (benign tumour),[8],0
same,Hepatotoxicity (successful reintroduction),[9],yes
same,Hepatotoxicity (moderate),[10],50%
same,Hepatotoxicity (acute),[11],2.8%
same,Hepatotoxicity (animal toxicity known),[13],yes
same,Hepatotoxicity (cytolytic),[14],1
same,Hepatotoxicity (steatosis),[15],0
same,Hepatotoxicity (granulomatous hepatitis),[16],0
same,Hepatotoxicity (choleostasis),[17],2
same,Hepatotoxicity (acute),[18],5
Nc1c2c(nc3ccccc13)CCCC2 [TACRINE],Hepatotoxicity (moderate),[1],38
same,Hepatotoxicity (severe hepatitis),[2]; Liver,2
same,Hepatotoxicity (cirrhosis),[3],0
same,Hepatotoxicity (association with vascular disease),[4],0
same,Hepatotoxicity (chronic liver disease),[5],0
same,Hepatotoxicity (malignant tumour),[6],0
same,Hepatotoxicity (time to onset),[7],1 week - 1.7 years
same,Hepatotoxicity (benign tumour),[8],0
same,Hepatotoxicity (successful reintroduction),[9],yes
same,Hepatotoxicity (moderate),[10]; Liver,54%
same,Hepatotoxicity (acute),[11]; Liver,13.4%
same,Hepatotoxicity (mechanism),[12]; Liver,Dose-dependant
same,Hepatotoxicity (animal toxicity known),[13],yes
same,Hepatotoxicity (cytolytic),[14]; Liver,19
same,Hepatotoxicity (steatosis),[15],1
same,Hepatotoxicity (granulomatous hepatitis),[16]; Liver,4
same,Hepatotoxicity (choleostasis),[17]; Liver,1
same,Hepatotoxicity (acute),[18],22
